The test system of the assay is KB. Put plainly: Cytotoxicity against human KB cells. The class given is functional. The note with it: read-out: ED50 (the source's name).

≈ marks a conversion by molar mass, not a printed value.

On to `COc1cc([C@@H]2c3cc4c(c(OC)c3C[C@H]3COC(=O)[C@@H]32)OCO4)cc(OC)c1OC`, for which the EC50 was 0.026 µg/mL (≈ 0.0607 µM).

For the origin of these results see ChEMBL document CHEMBL1151348, “Plant anticancer agents. X. Lignans from Juniperus phoenicea” (1980).
